Laboratory results: patent US9957297B2, “Template-fixed peptidomimetics as inhibitors of FPR1” (POLYPHOR AG, priority 2011, dated 2018)
Where a SMILES comes first, the peptide text is derived from it. Bridges are numbered along the chain shown (N, C = ends). [ ]: non-standard residue; d: D form. Pro(4R-NH2) = N[C@H]1CN[C@H](C(=O)O)C1; Dab = NCC[C@H](N)C(=O)O

Molecular target: T1, FPR1 (Homo sapiens, UniProt P21462)
T1 construct: host or cells: CHO (PathHunter CHO-FPR1 β-arrestin cells)
T1 sequence (P21462 1-350): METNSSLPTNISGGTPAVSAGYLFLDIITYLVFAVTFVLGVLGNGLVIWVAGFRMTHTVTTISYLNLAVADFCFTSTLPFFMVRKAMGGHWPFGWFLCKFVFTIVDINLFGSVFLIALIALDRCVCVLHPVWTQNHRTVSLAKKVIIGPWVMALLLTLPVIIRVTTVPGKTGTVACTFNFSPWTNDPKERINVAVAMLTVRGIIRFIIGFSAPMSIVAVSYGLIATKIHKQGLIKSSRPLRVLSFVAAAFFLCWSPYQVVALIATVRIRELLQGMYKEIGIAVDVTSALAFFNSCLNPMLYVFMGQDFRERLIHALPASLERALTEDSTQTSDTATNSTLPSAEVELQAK
Assay: FPR1 β-arrestin recruitment assay (PathHunter CHO-FPR1, antagonistic mode)
Assay type: cell-based
Details: CHO FPR1 β-arrestin cells; antagonistic assay vs reference agonist fMLF at its EC80; 60 min preincubation
Description: 2.2 FPR1 β-Arrestin Recruitment Assay
The PathHunter CHO—FPR1 (DiscoverX) assay was performed according to the manufacturer's protocol. In brief, CHO FPR1 β-arrestin cells were seeded at a density of 9000 cells per well in 20 μl of Ham's F12 medium (Invitrogen) in black 384-well culture plates and incubated overnight at 37° C. in a humidified atmosphere with 5% CO2. The next day, serial dilutions of the β-hairpin peptidomimetics of this invention have been prepared in DMSO and subsequently diluted in HBSS buffer supplemented with 20 mM Hepes and 0.1% BSA.
For antagonistic assay, 5 μl of compound solution or buffer was added to the cells with a final DMSO concentration of 0.5% (v/v). The plate was incubated for 60 min at 37° C. with 5% CO2 before addition of […] of the reference agonist fMLF peptide (Sigma-Aldrich) at its EC80 concentration. After 90 min of incubation at 37° C. with 5% CO2, 15 μl of beta-Glo detection reagent (Promega) were added. Reaction was developed for 20 min at room temperature and chemiluminescence was measured with a Victor2V (Perkin Elmer) luminescence reader.

Row | Compound | IC50
1 | CC[C@H](C)[C@@H]1NC(=O)[C@H]([C@@H](C)O)NC(=O)[C@H](Cc2c[nH]c3ccccc23)NC(=O)[C@H]2CCCN2C(=O)CNC(=O)[C@H](Cc2c[nH]cn2)NC(=O)[C@@H]2CSSC[C@H](NC1=O)C(=O)N[C@@H](Cc1ccc(O)cc1)C(=O)N[C@@H](CCC(=O)O)C(=O)N[C@@H](CCN)C(=O)N1CCC[C@@H]1C(=O)N1CCC[C@H]1C(=O)N[C@@H](Cc1ccc(O)cc1)C(=O)N[C@@H](Cc1c[nH]cn1)C(=O)N[C@@H](CCCCN)C(=O)N2 [compound 56, cyclo(-Tyr-His-Lys-Cys-His-Gly-^DPro-Trp-Thr-Ile-Cys-Tyr-Glu-Dab-^DPro-Pro-)] (cyclo(YHKCHG[dP]WTICYE[Dab][dP]P); disulfide 4-11) | 0.082 ± 0.029 µM
2 | CC[C@H](C)[C@@H]1NC(=O)[C@H]([C@@H](C)O)NC(=O)[C@H](Cc2c[nH]c3ccccc23)NC(=O)[C@H]2CCCN2C(=O)CNC(=O)[C@H](Cc2c[nH]cn2)NC(=O)[C@@H]2CSSC[C@H](NC1=O)C(=O)N[C@@H](Cc1ccc(O)cc1)C(=O)N[C@@H](CCC(=O)O)C(=O)N[C@@H](CCCCN)C(=O)N1CCC[C@@H]1C(=O)N1CCC[C@H]1C(=O)N[C@@H](CC(=O)O)C(=O)N[C@@H](Cc1c[nH]cn1)C(=O)N[C@@H](CCCCN)C(=O)N2 [compound 66, cyclo(-Asp-His-Lys-Cys-His-Gly-^DPro-Trp-Thr-Ile-Cys-Tyr-Glu-Lys-^DPro-Pro-)] (cyclo(DHKCHG[dP]WTICYEK[dP]P); disulfide 4-11) | 0.177 ± 0.028 µM
3 | CC[C@H](C)[C@@H]1NC(=O)[C@H]([C@@H](C)O)NC(=O)[C@H](Cc2c[nH]c3ccccc23)NC(=O)[C@@H](C)NC(=O)CNC(=O)[C@H](Cc2c[nH]cn2)NC(=O)[C@@H]2CSSC[C@H](NC1=O)C(=O)N[C@@H](Cc1ccc(O)cc1)C(=O)N[C@@H](CCC(=O)O)C(=O)N[C@@H](CCCCN)C(=O)N1CCC[C@@H]1C(=O)N1CCC[C@H]1C(=O)N[C@@H](Cc1ccc(O)cc1)C(=O)N[C@@H](Cc1c[nH]cn1)C(=O)N[C@@H](CCCCN)C(=O)N2 [compound 71, cyclo(-Tyr-His-Lys-Cys-His-Gly-^DAla-Trp-Thr-Ile-Cys-Tyr-Glu-Lys-^DPro-Pro-)] (cyclo(YHKCHG[dA]WTICYEK[dP]P); disulfide 4-11) | 0.077 ± 0.004 µM
4 | CC[C@H](C)[C@@H]1NC(=O)[C@H]([C@@H](C)O)NC(=O)[C@H](Cc2c[nH]c3ccccc23)NC(=O)[C@H]2CCCN2C(=O)CNC(=O)[C@H](Cc2c[nH]cn2)NC(=O)[C@@H]2CSSC[C@H](NC1=O)C(=O)N[C@@H](Cc1ccc(O)cc1)C(=O)N[C@@H](CCC(=O)O)C(=O)N[C@@H](CCCCN)C(=O)N1CCC[C@@H]1C(=O)N1C[C@H](N)C[C@H]1C(=O)N[C@@H](Cc1ccc(O)cc1)C(=O)N[C@@H](Cc1c[nH]cn1)C(=O)N[C@@H](CCCCN)C(=O)N2 [compound 83, cyclo(-Tyr-His-Lys-Cys-His-Gly-^DPro-Trp-Thr-IIe-Cys-Tyr-Glu-Lys-^DPro-Pro((4R)NH2)-)] (cyclo(YHKCHG[dP]WTICYEK[dP][Pro(4R-NH2)]); disulfide 4-11) | 0.082 ± 0.051 µM
5 | CC[C@H](C)[C@@H]1NC(=O)[C@H]([C@@H](C)O)NC(=O)[C@H](Cc2c[nH]c3ccccc23)NC(=O)[C@H]2CCCN2C(=O)CNC(=O)[C@H](Cc2c[nH]c3ccccc23)NC(=O)[C@@H]2CSSC[C@H](NC1=O)C(=O)N[C@@H](Cc1ccc(O)cc1)C(=O)N[C@@H](CCC(=O)O)C(=O)N[C@@H](CCCCN)C(=O)N1CCC[C@@H]1C(=O)N[C@@H](CCCCN)C(=O)N[C@@H](Cc1ccc(O)cc1)C(=O)N[C@@H](Cc1c[nH]cn1)C(=O)N[C@@H](CCCCN)C(=O)N2 [compound 87, cyclo(-Tyr-His-Lys-Cys-Trp-Gly-^DPro-Trp-Thr-Ile-Cys-Tyr-Glu-Lys-^DPro-Lys-)] (cyclo(YHKCWG[dP]WTICYEK[dP]K); disulfide 4-11) | 0.054 ± 0.021 µM
